The conditions of data set [1]: given once daily; cited from earlier work.
The next data set has as its target T1, RAC1/CDC42 Rho GTPases (Mus musculus, UniProt P63001).
T1 construct: host or cells: Alport mice (in vivo)
The conditions noted are these: Zallocchi et al. 2013; cited from earlier work.

In data set [2] the target is T2, endothelin A receptor (Mus musculus, UniProt Q61614).
T2 construct: Endothelin A receptors are expressed primarily on mesangial cells; endogenous in cells; host or cells: Alport mice (in vivo)
T2 sequence (Q61614 21-427): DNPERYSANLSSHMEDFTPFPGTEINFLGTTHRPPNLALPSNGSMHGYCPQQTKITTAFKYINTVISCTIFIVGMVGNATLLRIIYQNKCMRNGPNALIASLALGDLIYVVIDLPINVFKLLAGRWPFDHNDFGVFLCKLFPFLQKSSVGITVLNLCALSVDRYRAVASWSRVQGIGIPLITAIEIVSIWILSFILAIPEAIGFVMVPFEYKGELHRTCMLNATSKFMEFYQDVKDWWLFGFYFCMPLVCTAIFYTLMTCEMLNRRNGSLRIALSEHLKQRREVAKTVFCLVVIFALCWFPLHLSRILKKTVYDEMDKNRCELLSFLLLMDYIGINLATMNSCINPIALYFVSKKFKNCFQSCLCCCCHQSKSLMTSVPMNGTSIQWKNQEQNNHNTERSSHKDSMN
As to conditions: Dufek et al. 2016, cited from earlier work.

Data set [3] concerns pro-fibrotic genes, including Snail1. Kind of data set: QIAGEN mouse fibrosis microarray of glomerular RNA from treated Alport mice. Type of data set: in vivo. The method, then: FIG. 2. Glomerular RNA from Alport mice treated with vehicle, Sitaxentan, or nAb #7 was analyzed using QIAGEN mouse fibrosis microarray. The data reveal that Sitaxentan (and Ambrisentan) induce a number of pro-fibrotic genes, including Snail1, which is known to play a key role in promoting renal fibrosis (Grande et al., 2015, Nat Med; 21(9):989-97). […] The data is consistent with aberrant signaling activation by classic small molecule ETAR antagonists that results in pro-fibrotic effects, defining a clear potential advantage of the biologic over small molecule approach.
Glomerular RNA from sitaxentan-treated and neutralizing antibody-treated mice was analyzed using QIAGEN mouse fibrosis microarrays.

In data set [4] the target is T2, endothelin A receptor. The data set can be described thus: Sitaxentan treatment of Alport mice. Type of data set: in vivo. The method, then:
FIG. 1. […] Alport mice were treated with the indicated dose of Sitaxentan once daily from 2 to 7 weeks of age. Real time RT-PCR analysis for the indicated transcripts was performed on glomerular RNA.
FIGS. 3A and 3B. […] 129-Alport animals were treated with the endothelin A receptor specific blocking agent Sitaxentan from 2 weeks to 7 weeks of age.
FIGS. 4A and 4B. […] In FIG. 4A, urine was collected at the indicated timepoints and analyzed for albumin using an ELISA kit. Albumin measures were normalized to urinary creatinine. […] In FIG. 4B, BUN measures were performed on serum from 7-week-old vehicle or Sitaxentan-treated Alport mice.

Data set [5] concerns the target T2, endothelin A receptor. Kind of data set: Sitaxentan treatment of Alport mice. As to conditions: 30 mg/kg once daily. Type of data set: in vivo.
In the next data set the target is T3, ACE (Mus musculus, UniProt P09470).
T3 construct: host or cells: 129 Sv autosomal Alport mice (in vivo)
T3 sequence (P09470 35-1312): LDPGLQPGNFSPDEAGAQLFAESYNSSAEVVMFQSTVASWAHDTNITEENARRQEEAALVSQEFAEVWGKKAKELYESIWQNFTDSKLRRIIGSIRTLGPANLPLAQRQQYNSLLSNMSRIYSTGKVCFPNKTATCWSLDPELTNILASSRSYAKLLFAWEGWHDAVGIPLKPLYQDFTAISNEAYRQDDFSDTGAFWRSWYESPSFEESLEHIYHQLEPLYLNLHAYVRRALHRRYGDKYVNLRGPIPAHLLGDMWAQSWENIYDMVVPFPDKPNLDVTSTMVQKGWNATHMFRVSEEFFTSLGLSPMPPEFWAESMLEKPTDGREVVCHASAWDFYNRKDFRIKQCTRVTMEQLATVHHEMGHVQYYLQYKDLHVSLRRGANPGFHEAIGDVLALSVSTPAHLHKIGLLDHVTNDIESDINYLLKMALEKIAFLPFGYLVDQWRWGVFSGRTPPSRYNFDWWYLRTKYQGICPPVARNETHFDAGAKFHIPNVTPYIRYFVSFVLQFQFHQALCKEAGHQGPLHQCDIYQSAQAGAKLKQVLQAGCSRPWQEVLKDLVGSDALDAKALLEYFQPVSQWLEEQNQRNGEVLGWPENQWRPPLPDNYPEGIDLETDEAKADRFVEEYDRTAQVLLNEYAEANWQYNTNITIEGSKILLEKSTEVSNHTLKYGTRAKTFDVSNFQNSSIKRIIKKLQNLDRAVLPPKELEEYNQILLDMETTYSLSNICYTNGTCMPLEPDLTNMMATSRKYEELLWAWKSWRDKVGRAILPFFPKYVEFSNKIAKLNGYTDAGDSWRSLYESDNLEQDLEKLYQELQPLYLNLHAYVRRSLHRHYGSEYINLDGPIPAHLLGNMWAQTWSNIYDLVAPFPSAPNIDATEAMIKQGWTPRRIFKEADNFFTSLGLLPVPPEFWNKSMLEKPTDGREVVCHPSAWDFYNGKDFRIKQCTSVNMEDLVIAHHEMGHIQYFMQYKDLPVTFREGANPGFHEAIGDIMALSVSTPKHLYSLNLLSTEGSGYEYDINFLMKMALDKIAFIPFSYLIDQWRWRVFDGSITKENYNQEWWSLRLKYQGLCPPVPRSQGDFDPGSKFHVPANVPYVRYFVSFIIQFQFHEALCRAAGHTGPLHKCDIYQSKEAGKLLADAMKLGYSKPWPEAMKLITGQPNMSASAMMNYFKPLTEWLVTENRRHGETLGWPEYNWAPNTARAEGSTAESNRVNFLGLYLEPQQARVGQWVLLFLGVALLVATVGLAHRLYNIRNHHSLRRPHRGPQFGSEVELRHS
As to conditions: cited from earlier work.

`COC(c1ccccc1)(c1ccccc1)[C@H](Oc1nc(C)cc(C)n1)C(=O)O` [Ambrisentan]: in data set [1], the half-life in mice was 6 h.
For `CCN(CC)CCCC(C)Nc1nc(C)cc(Nc2ccc3nc(C)cc(N)c3c2)n1` (stereo not drawn) [NCS 23766], the “laminin 211 deposition in the Alport GBM” value at RAC1/CDC42 Rho GTPases was “largely blocked”.
Take `Cc1cc2c(cc1CC(=O)c1sccc1S(=O)(=O)Nc1onc(C)c1Cl)OCO2` [Sitaxentan]: on endothelin A receptor [2] (129 Sv autosomal Alport mouse model), the blood pressure entry is on record as “no effect on blood pressure”. The increase in lifespan on endothelin A receptor [2] (Alport mice) is on record as 20%. At endothelin A receptor [2], the “GBM damage vs vehicle-treated Alport mice” value is listed as “significantly reduced GBM damage”. In addition, the “induction of pro-fibrotic / pro-inflammatory genes incl. Snail1 in glomeruli” value in data set [3] is recorded as “markedly inducing”. Further, the therapeutic effect entry on endothelin A receptor [4] (5 mg/kg) is given as “little to no significant therapeutic effect”. Also, at endothelin A receptor [4] (30 mg/kg dose), the BUN entry was “not statistically different from vehicle treated Alport mice”, the fibrosis scores entry was “not statistically different from vehicle treated Alport mice”, the glomerulosclerosis scores entry is “not statistically different from vehicle treated Alport mice” and the proteinuria result is given as “not statistically different from vehicle treated Alport mice”. In addition, the “GBM dysmorphology (TEM)” value at endothelin A receptor [4] (7-week-old Alport mice) is recorded as “normalized”. Also, the “serum BUN levels” value at endothelin A receptor [4] (7-week-old mice) is on record as “reduces”. Besides, the “GBM laminin α2 deposition” value at endothelin A receptor [4] (129 Sv/J autosomal Alport mice) is “greatly reduced”. Also, the “age at which measurable urinary albumin was first detected” value at endothelin A receptor [4] (albumin ELISA normalized to urinary creatinine) is 6 weeks of age. On endothelin A receptor [4] (increasing doses above 10 mg/kg), the “renal disease (renotoxicity)” value is on record as “exacerbated renal disease”. The “infiltration of glomerular capillaries with mesangial filopodia” value on endothelin A receptor [4] (integrin α8 immunopositivity) is on record as “greatly reduced”. For the same compound, the Alport pathogenesis entry on endothelin A receptor [4] (low dose 10 mg/kg once daily, 2 to 7 weeks of age) is “ameliorated Alport pathogenesis”. For the same compound, the “glomerular mRNA expression of cytokines and metalloproteinases (MMP-9, MMP-10, MMP-12, MCP-1, IL-6)” value on endothelin A receptor [4] (real time RT-PCR) is given as “reduced to near control levels”. Moreover, at endothelin A receptor [4] (treated 2 to 7 weeks of age), the “% glomerulosclerosis” value was “reduced to near control levels”; the fibrosis scores entry is recorded as “reduced to near control levels”; the “onset and progression of proteinuria” value is given as “significantly delays”. In addition, the half-life in mice in data set [1] was 6 h. Also, at endothelin A receptor [5], the lifespan vs vehicle entry is “shorter lifespan than vehicle treated Alport mice”.
As for `CCOC(=O)[C@H](CCc1ccccc1)N[C@@H](C)C(=O)N1[C@H](C(=O)O)C[C@@H]2CCC[C@@H]21` [ramipril], on ACE (Gross et al. 2003), the “degree of GBM damage” value was “comparable to untreated Alport mice”. Besides, at ACE (administered before onset of proteinuria, Gross et al. 2003), the lifespan entry is “doubled”. The blood pressure entry at ACE (mouse, in vivo) was “reduces blood pressure”.

The values are drawn from patent US12577300B2, “Neutralizing antibodies to human endothelin” (Father Flanagan's Boys' Home Doing Business as Boys Town …, priority 2019, dated 2026).
